Data taken from ChEMBL document CHEMBL1641485, “Chromone 3-phenylcarboxamides as potent and selective MAO-B inhibitors” (Bioorg Med Chem Lett, 2011).

Experiments:
[1] = target: T1, Amine oxidase [flavin-containing] A (Homo sapiens, UniProt P21397); assay: Inhibition of human recombinant MAOA expressed in baculovirus-infected BTI insect cells at 100 uM after 15 mins by fluorimetric assay; details: 0.25 h
T1 sequence (P21397 whole entry): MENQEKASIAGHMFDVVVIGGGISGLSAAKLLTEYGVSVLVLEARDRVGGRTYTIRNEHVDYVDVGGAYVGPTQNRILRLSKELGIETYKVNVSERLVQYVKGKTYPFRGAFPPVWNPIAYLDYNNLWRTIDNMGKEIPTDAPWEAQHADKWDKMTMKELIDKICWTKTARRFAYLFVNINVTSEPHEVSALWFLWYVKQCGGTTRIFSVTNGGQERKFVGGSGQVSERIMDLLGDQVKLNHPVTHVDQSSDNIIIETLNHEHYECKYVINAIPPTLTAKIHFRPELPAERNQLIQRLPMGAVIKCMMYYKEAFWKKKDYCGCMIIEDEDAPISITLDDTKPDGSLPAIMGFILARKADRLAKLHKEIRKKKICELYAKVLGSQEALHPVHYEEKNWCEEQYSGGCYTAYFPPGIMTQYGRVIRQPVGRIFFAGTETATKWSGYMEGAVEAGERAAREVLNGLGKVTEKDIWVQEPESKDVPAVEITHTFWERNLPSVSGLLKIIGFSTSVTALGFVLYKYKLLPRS

[2] = target: T2, Amine oxidase [flavin-containing] B (Homo sapiens, UniProt P27338); assay: Inhibition of human recombinant MAOB expressed in baculovirus-infected BTI insect cells at 100 uM after 15 mins by fluorimetric assay; details: 0.25 h
T2 sequence (P27338 whole entry): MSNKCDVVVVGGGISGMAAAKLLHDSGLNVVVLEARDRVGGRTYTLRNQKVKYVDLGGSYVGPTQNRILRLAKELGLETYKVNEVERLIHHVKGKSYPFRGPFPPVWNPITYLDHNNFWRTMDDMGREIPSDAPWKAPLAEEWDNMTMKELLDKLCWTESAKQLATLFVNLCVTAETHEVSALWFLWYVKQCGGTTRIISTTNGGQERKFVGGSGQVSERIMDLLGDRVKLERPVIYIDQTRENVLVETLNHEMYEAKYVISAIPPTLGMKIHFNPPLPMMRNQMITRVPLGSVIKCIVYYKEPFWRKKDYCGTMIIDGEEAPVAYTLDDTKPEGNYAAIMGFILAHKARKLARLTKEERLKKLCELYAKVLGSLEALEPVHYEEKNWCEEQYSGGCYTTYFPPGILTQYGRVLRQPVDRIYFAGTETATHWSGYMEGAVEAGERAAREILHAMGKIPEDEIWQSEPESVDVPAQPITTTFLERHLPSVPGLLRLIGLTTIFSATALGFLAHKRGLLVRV

Homo sapiens = organism: Homo sapiens; assay: Selectivity ratio of IC50 for human recombinant MAOA to IC50 for human recombinant MAOB
[3] = target: T2, Amine oxidase [flavin-containing] B; assay: Inhibition of human recombinant MAOB expressed in baculovirus-infected BTI insect cells after 15 mins by fluorimetric assay; type: cell-based

Structure (SMILES) | inhibition (INH) [1] | inhibition (INH) [2] | Ratio IC50 (Homo sapiens) | IC50 [3] [nM]
Cc1ccc(NC(=O)c2cc(=O)c3ccccc3o2)cc1 | Not Active | Not Active | – | –
COc1ccc(NC(=O)c2coc3ccccc3c2=O)cc1 | Not Active | – | > 222 | 450
CSc1ccc(NC(=O)c2coc3ccccc3c2=O)cc1 | Not Active | – | > 833 | 120
COc1ccc(NC(=O)c2cc(=O)c3ccccc3o2)cc1 | Not Active | Not Active | – | –
O=C(Nc1ccccc1)c1cc(=O)c2ccccc2o1 | Not Active | Not Active | – | –
O=C(Nc1ccc(I)cc1)c1cc(=O)c2ccccc2o1 | Not Active | Not Active | – | –
CSc1ccc(NC(=O)c2cc(=O)c3ccccc3o2)cc1 | Not Active | Not Active | – | –
